Results: patent US20160137639A1, “TRIAZOLE-ISOXAZOLE COMPOUND AND MEDICAL USE THEREOF” (JAPAN TOBACCO INC., priority 2012, published 2016)
pEC50: −log10 of the molar value. Where two headings read alike, the source gives them in different places.

Columns and labels:
[1] = target: T1, human RORγ (Homo sapiens, UniProt P51449); test: Luciferase reporter gene assay of inhibitory effect against RORγ transcriptional activity (GAL4-hRORγ plasmid in CHO cells); format: cell-based; details: for pEC50: read-out: LUC EC50 hRORg
T1 construct: human, NM_005060.3 and from Ser253 to Lys518; expressed in transfected cells; host or cells: CHO cells (transient co-transfection with pG5-Luc reporter)
T1 sequence (P51449 253-518): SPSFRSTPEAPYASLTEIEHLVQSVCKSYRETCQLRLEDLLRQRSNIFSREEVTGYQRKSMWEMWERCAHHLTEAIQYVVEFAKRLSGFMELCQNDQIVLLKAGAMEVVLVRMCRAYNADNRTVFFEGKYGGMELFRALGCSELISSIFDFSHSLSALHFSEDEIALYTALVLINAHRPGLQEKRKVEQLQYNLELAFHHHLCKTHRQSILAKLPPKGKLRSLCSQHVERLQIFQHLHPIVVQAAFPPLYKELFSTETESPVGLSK

[2] = target: T2, mouse RORγ (Mus musculus, UniProt P51450); test: Luciferase reporter gene assay of inhibitory effect against RORγ transcriptional activity (GAL4-mRORγ plasmid in CHO cells); format: cell-based; details: for pEC50: read-out: LUC EC50 mRORg
T2 construct: mouse, NM_011281.2 and from Ile251 to Lys516; expressed in transfected cells; host or cells: CHO cells (transient co-transfection with pG5-Luc reporter)
T2 sequence (P51450 251-516): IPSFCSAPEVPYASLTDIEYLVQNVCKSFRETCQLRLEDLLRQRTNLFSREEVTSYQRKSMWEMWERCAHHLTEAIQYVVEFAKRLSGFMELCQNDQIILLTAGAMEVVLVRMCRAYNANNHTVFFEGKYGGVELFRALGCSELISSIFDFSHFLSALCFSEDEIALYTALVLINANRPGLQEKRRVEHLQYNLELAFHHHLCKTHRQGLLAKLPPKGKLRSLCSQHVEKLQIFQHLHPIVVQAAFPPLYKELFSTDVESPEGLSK
How it was run: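 Readout is intracellular luciferase after 2-day compound exposure (8 concentrations, 0.1% DMSO) in CHO cells expressing GAL4 fused to mouse RORγ LBD residues Ile251–Lys516 plus pG5-Luc reporter. EC50 fitted from %-of-control; points showing resazurin-detected cytotoxicity dropped.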

SMILES | pEC50 [1] | pEC50 [2] | EC50 ([1]; read-out: LUC EC50 (μM) hRORg) | EC50 ([2]; read-out: LUC EC50 (μM) mRORg) | other results
Cc1ccc(NC(=O)[C@H]2CN(C(=O)CCC(=O)O)C[C@@H]2c2noc([C@H]3C[C@@H](CC(C)(C)C)C3)c2C2CC2)c(Cl)c1 [Example F-688, 4-((3R,4R)-3-(2-Chloro-4-methyl-phenylcarbamoyl)-4-{4-cyclopropyl-5-[3-(2,2-dimethyl-propyl)-cyclobutyl]-isoxazol-3-yl}pyrrolidin-1-yl)-4-oxo-butanoic acid] | > 5.52 | > 5.52 | – | – | –
CC(=O)N1C[C@H](C(=O)Nc2ccc(C)cc2C)[C@@H](c2nnc([C@H]3C[C@@H](CC(C)(C)C)C3)n2C2CC2)C1 [Example F-461] | – | – | < 3 µM | < 3 µM | –
Cc1ccc(NC(=O)C[C@H](CN2CC(=O)NC2=O)c2nnc([C@H]3C[C@@H](CC(C)C)C3)n2C2CC2)c(C)c1 [Example F-479] | – | – | < 3 µM | < 3 µM | –
Cc1ccc(NC(=O)CC(CCOC(=O)N(C)C)c2nnc([C@H]3C[C@@H](CC(C)C)C3)n2C2CC2)c(C)c1 (mixture of isomers) [Example F-484] | – | – | < 3 µM | < 3 µM | –
CC(C)CCc1nnc(CCC(=O)Nc2ccccc2C(C)C)n1C1CC1 [Example F-75] | – | – | > 3 µM | > 3 µM | –
Cc1ccc(NC(=O)CC(c2nnc([C@H]3C[C@@H](CC(C)C)C3)n2C2CC2)C2CNC2)c(C)c1 (mixture of isomers) [Example F-468] | – | – | > 3 µM | > 3 µM | –
Cc1ccc(NC(=O)C[C@@H](CCO)c2nnc([C@H]3C[C@@H](CC(C)C)C3)n2C2CC2)c(C)c1 [Example F-360] | – | – | > 3 µM | > 3 µM | –
COc1ccc(NC(=O)CCc2nnc(CCC(C)C)n2C2CC2)c(C)c1 [Example F-82] | – | – | > 3 µM | > 3 µM | –
C=CCC(CC(=O)Nc1ccc(C)cc1C)c1nnc([C@H]2C[C@@H](CC(C)C)C2)n1C1CC1 (mixture of isomers) [Example F-509] | > 5.52 | > 5.52 | – | – | –
Cc1ccc(C#N)cc1NC(=O)CCc1nnc(CCC(C)C)n1C1CC1 [Example F-143] | – | – | > 3 µM | > 3 µM | –
Cc1ccc(NC(=O)C[C@@H](c2nnc([C@H]3C[C@@H](CC(C)C)C3)n2C2CC2)N(C)C(C)C)c(C)c1 [Example F-537] | > 5.52 | > 5.52 | – | – | –
Cc1ccc(NCc2nnc(CCC(=O)Nc3cccc(Cl)c3C)n2C2CC2)cc1C [Example F-207] | – | – | < 3 µM | < 3 µM | –
Cc1c(Cl)cccc1NC(=O)CCc1nnc(CCC2CCCN(C(=O)OC(C)(C)C)C2)n1C1CC1 (racemic) [Example F-186] | – | – | < 3 µM | < 3 µM | –
CCn1c(CCC(=O)Nc2ccc(C)cc2C)nnc1CCC1CCCC1 [Example F-48] | – | – | > 3 µM | < 3 µM | –
CC(=O)NCC(CC(=O)Nc1ccc(C)cc1C)c1nnc(CCCC(C)C)n1C1CC1 (racemic) [Example F-277] | – | – | > 3 µM | < 3 µM | –
Cc1ccc(NC(=O)C[C@H](OCCO)c2nnc([C@H]3C[C@@H](CC(C)C)C3)n2C2CC2)c(C)c1 [Example F-434] | – | – | < 3 µM | < 3 µM | –
Cc1ccc(NC(=O)C[C@H](CCCO)c2nnn([C@H]3C[C@@H](CC(C)(C)C(C)C)C3)c2C(F)(F)F)c(F)c1 [Example F-710] | > 5.52 | > 5.52 | – | – | –
CC(C)(C[C@H]1C[C@@H](c2onc([C@@H](CCC(=O)O)CC(=O)Nc3ccc(CO)cc3Cl)c2C2CC2)C1)C(=O)O [Example F-739] | < 5.52 | < 5.52 | – | – | –
COCC(=O)NC[C@@H](CC(=O)Nc1ccc(C)cc1C)c1nnc([C@H]2C[C@@H](CC(C)C)C2)n1C1CC1 [Example F-487] | – | – | < 3 µM | < 3 µM | –
Cc1ccc(NC(=O)C[C@H](OCC(F)(F)F)c2nnc(-c3cc(CC(C)C)on3)n2C2CC2)c(C)c1 [Example F-629] | > 5.52 | > 5.52 | – | – | –
Cc1ccc(NC(=O)C[C@H](CCC(=O)O)c2noc(-c3ncc(CC(C)C)s3)c2C2CC2)c(Cl)c1 [Example E-15] | – | – | < 3 µM | < 3 µM | –

SMILES | pEC50 [1] | pEC50 [2] | EC50 ([1]; read-out: LUC EC50 (μM) hRORg) | EC50 ([2]; read-out: LUC EC50 (μM) mRORg) | other results
Cc1cc(NC(=O)C[C@H](CC(=O)O)c2noc([C@H]3C[C@@H](CC(C)C)C3)c2C2CC2)n(C)n1 [Example F-669] | < 5.52 | > 5.52 | – | – | –
Cc1ccc(NC(=O)[C@@H]2C[C@H](O)C[C@H]2c2nnc([C@H]3C[C@@H](CC(C)C)C3)n2C2CC2)c(C)c1 [Example F-471] | – | – | > 3 µM | > 3 µM | –
CCn1c(CCC(=O)NC2CCCc3ccccc32)nnc1C1Cc2ccccc2C1 (stereo not drawn) [Example F-10] | – | – | – | – | EC50 ([1]; LUC EC50 (μM) hRORg): > 3 µM; EC50 ([2]; LUC EC50 (μM) mRORg): > 3 µM
CC(=O)N1C[C@H](C(=O)Nc2ccc(C)cc2C)[C@@H](c2nnc(C3CN(C(=O)CC(C)(C)C)C3)n2C2CC2)C1 (racemic) [Example F-417] | – | – | > 3 µM | > 3 µM | –
Cc1ccc(NC(=O)C[C@H](CCC(=O)O)c2noc([C@H]3C[C@@H](CC(C)(C)CO)C3)c2C2CC2)c(Cl)c1 [Example F-716] | > 5.52 | > 5.52 | – | – | –
CCn1c(CCC(=O)Nc2cccc(Cl)c2Cl)nnc1C1Cc2ccccc2C1 [Example F-30] | – | – | > 3 µM | < 3 µM | –
Cc1ccc(NC(=O)C[C@H](CCC(=O)O)c2noc3c2C(C)CCC3CCC(C)C)c(Cl)c1 (single isomer, unassigned) [Example F-694] | > 5.52 | > 5.52 | – | – | –
Cc1ccc(NC(=O)C[C@H](CCC(=O)O)c2noc(-c3cc(C(F)(F)C4CCCC4)on3)c2C2CC2)c(Cl)c1 [Example E-39] | – | – | < 3 µM | < 3 µM | –
Cc1ccc(NC(=O)C[C@H](CCCO)c2noc(-c3cc(CC(C)C)[nH]n3)c2C2CC2)c(F)c1 [Example F-702] | > 5.52 | > 5.52 | – | – | –
Cc1ccc(NC(=O)[C@H]2CN(CC(=O)N(C)C)C[C@@H]2c2nnc([C@H]3C[C@@H](CC(C)C)C3)n2C2CC2)c(C)c1 [Example F-656] | > 5.52 | > 5.52 | – | – | –
Cc1ccc(NC(=O)CCc2nnc(CO)n2C2CC2)c(C)c1 [Example F-96] | – | – | > 3 µM | > 3 µM | –
Cc1c(Cl)cccc1NC(=O)CCc1nnc(CCC2CCC(F)(F)CC2)n1C1CC1 [Example F-254] | – | – | < 3 µM | < 3 µM | –
Cc1ccc(NC(=O)[C@H]2C[C@@H](O)C[C@@H]2c2nnc([C@H]3C[C@@H](CC(C)C)C3)n2C2CC2)c(C)c1 (racemic) [Example F-431] | – | – | < 3 µM | < 3 µM | –
Cc1cc(F)ccc1NC(=O)C[C@H](CC(C)C)c1nnc(-c2cc(CC(C)C)on2)n1C1CC1 [Example F-607] | > 5.52 | > 5.52 | – | – | –
CC(=O)N1CC([C@H](CC(=O)Nc2ccc(C)cc2C)c2nnc([C@H]3C[C@@H](CC(C)C)C3)n2C2CC2)C1 [Example F-467] | – | – | > 3 µM | > 3 µM | –
Cc1ccc(NC(=O)CCc2nnc(C(O)CCC(C)(C)C)n2C2CC2)c(C)c1 (racemic) [Example F-367] | – | – | > 3 µM | < 3 µM | –
Cc1ccc(NC(=O)C[C@H](NC(=O)OCc2ccccc2)c2nnc(CCCC(C)(C)C)n2C2CC2)c(C)c1 [Example F-355] | – | – | < 3 µM | < 3 µM | –
Cc1c(Cl)cccc1NC(=O)CCc1nnc(CCC(=O)N(C)C)n1C1CC1 [Example F-184] | – | – | > 3 µM | > 3 µM | –
Cc1c(Cl)cccc1NC(=O)CCc1nnc(CCN2CCC(F)(F)CC2)n1C1CC1 [Example F-261] | – | – | > 3 µM | < 3 µM | –
Cc1c(Cl)cccc1NC(=O)CCc1nnc(CC(=O)O)n1C1CC1 [Example F-264] | – | – | > 3 µM | > 3 µM | –
CC(C)(C)C[C@H]1C[C@@H](c2noc([C@@H](CCC(=O)O)CC(=O)Nc3ccc(Cl)cc3Cl)c2C2CC2)C1 [Example F-718] | > 5.52 | > 5.52 | – | – | –
